Data published in US20030119797A1, “Methods for selective immunomodulation” (priority 2001, published 2003).
“Also recorded” adds a separate entry of the source. Like-named read-outs stand apart in the source and are kept apart here.

Key:
IBD patients = settings: cited from earlier work
promoter for human IL-2 = assay: IL-2 reporter gene assay; format: cell-based; settings: read-out: IC50 (concentration required for 50% inhibition)
Description: The reporter gene is any gene expressing a readily observable product, e.g., an enzyme marker such as β-galactosidase or luciferase, or any other suitable enzyme marker. For example, where the enzyme marker is β-galactosidase, the reporter gene is, e.g., a bacterial lacZ gene; where the enzyme marker is luciferase, the gene is, e.g., a Phorinus luciferase gene. […] The promoter gene is a promoter gene for a cytokine or protein for which transcription is stimulated or suppressed by the drug to be monitored.
Blood samples from the patient are diluted, their effect on gene expression in the above described system is measured, and the assay is standardized using known concentrations of the immunosuppressive material.

[1] = system: mixed-lymphocyte reaction; assay: mixed-lymphocyte reaction (MLR) assay; format: cell-based, mouse
Description: In addition to the IL-2 reporter gene assay, the concentration of immunosuppressants, such as pimecrolimus and FK506 can be measured by the mixed-lymphocyte reaction (see Meo, “The MLR in the Mouse”, Immunological Methods, Lefkovits and Pernis, Eds., p. 227 Academic Press, NY).

[2] = human, in vivo
Procedure: In this study pimecrolimus was rapidly absorbed with a median tmax across all the dose groups and collection days of between 0.8 and 2.0 hours. […] There was no effect of age or weight on the apparent clearance of pimecrolimus.

[3] = system: SCID mice reconstituted with CD4+CD45RBHi T cells (SCID-IBD); assay: SCID-IBD mouse model, treatment started the day after T cell transfer; format: in vivo
Description: It is known that the transfer of syngeneic, naive T lymphocytes (CD4^+CD45RB^Hi) into SCID mice results in a severe colitis and wasting disease, SCID-IBD.
In this study, SCID mice reconstituted with CD4^+CD45RB^Hi T lymphocytes were used. These mice are known to develop chronic colitis with characteristics similar to human IBD, as described above.
[…] […] BW was monitored throughout. On termination, blood was withdrawn, spleen, mesenteric lymph nodes (MLN) and colon were removed. Serum haptoglobin levels were measured (ELISA), colitis was assessed histologically and lymphocyte and neutrophil numbers were calculated from FACS analysis of blood, spleen and MLN cell suspensions.
In order to determine the efficacy of ASM981 treatment in preventing intestinal mucosal damage in SCID-IBD mice, a histological examination of the colon sections was performed according to defined morphological parameters. All colon sections were assessed according to a scheme awarding degrees of severity governed by the extent of cell infiltration and inflammation with a score of 8 being the maximum.

[4] = system: SCID mice reconstituted with CD4+CD45RBHi T cells (SCID-IBD); assay: SCID-IBD mouse model, delayed treatment of established IBD; format: in vivo; settings: 100 mg/kg/day p.o. started after 7, 14 or 21 days, until 41 days
Procedure: In order to determine if pimecrolimus is also effective once IBD is established, SCID mice were treated with pimecrolimus at a dose level of 100 mg/kg/day at days 7, 14 or 21 following the transfer of the disease causing CD4^+ T cells. The study was terminated after 41 days, i.e., the mice were treated for 33, 26 and 19 days, respectively. The results are shown in FIGS. 10-12, and described below.
SCID mice were reconstituted with 2×10^5 CD4^+CD45RB^Hi T cells and treatment with pimecrolimus (100 mg/kg/day p.o.) started after 7, 14 or 21 days and continued daily until 41 days. Treatment with the placebo formulation started after 7 days. BW was monitored once a week for the first 2 weeks and then twice weekly. Data are expressed as mean percent BW relative to the weight on day 0±s.e.m. for n=9 (PBS), n=8 (ASM(7d) & ASM(21d) and n=7 (ASM(14d) and placebo) mice per group. PBS refers to the non-transferred mice which have been pooled with regard to percent BW values since no treatment dependent changes were found. p<0.01 relative to the placebo-treated group at 41 days.
SCID mice were reconstituted with 2×10^5 CD4^+CD45RB^Hi T cells and treatment with pimecrolimus (100 mg/kg/day p.o.) started after 7,14 or 21 days and continued daily until 41 days. […] Data are expressed as mean haptoglobin (mg/mL)±s.e.m. for n=9 (PBS), n=8 (ASM(7d)) and n=7 (ASM(14d), ASM(21d) and placebo) mice per group. […]

[5] = system: allergic contact dermatitis (ACD); assay: Rat model of allergic contact dermatitis (ACD); format: in vivo; settings: oral, same doses
[6] = system: systemic immune responses; assay: Models of systemic immunosuppression (graft-versus-host reaction, antibody formation to sheep red blood cells, kidney transplantation); format: in vivo, rat
Description: Pimecrolimus (also called ASM981 and ELIDEL®) is an ascomycin macrolactam-derivative with anti-inflammatory properties, chemical name is 33-epichloro-33-desoxy-ascomycin. Pimecrolimus is an ascomycin macrolactam-derivative developed originally for topical and oral treatment of inflammatory skin diseases such as atopic dermatitis and psoriasis. Pimecrolimus binds to macrophilin-12 and inhibits the Ca-dependent phosphatase calcineurin. As a consequence, it inhibits T cell activation and blocks the transcription and release of both Th1 and Th2 inflammatory cytokines. […] Tachyphylaxis has not been observed.

in vivo = settings: rat, po, 25 mg/kg
Procedure: In another study designed to explore the differences between pimecrolimus and FK506 and to determine whether these differences might be associated with a different tissue distribution, the exposure to pimecrolimus and FK506 in various organs after oral administration were measured. Animals received 2 oral doses of 25 mg/kg in an interval of 2 hours. […] Pimecrolimus was found consistently to have a higher skin/blood concentration ratio than FK506 (2 hours: 7.3 vs. 2.8; 6 hours: 13 vs. […]; 24 hours: 36 vs. 6.0). The AUC0-24h in skin calculated for pimecrolimus was twice as high as with FK506.
These distribution characteristics are relevant not only for oral, but also for topical application, as the compound enters systemic circulation after permeation through the skin.

[7] = system: allergen induced airway eosinophilia; assay: Mouse model of asthma: aeroallergen induced eosinophil influx into the lungs of sensitized mice; format: in vivo
[8] = system: antigen-induced pulmonary eosinophilia; assay: Rat model of asthma: antigen-induced pulmonary eosinophilia in actively sensitized Brown Norway Rats; format: in vivo; settings: single and multiple challenge models
Description: Another study looked at the effects of oral administration of pimecrolimus on antigen-induced pulmonary eosinophilia in actively sensitized Brown Norway Rats.

CYP3A enzyme subfamily = assay: Elimination / metabolism of pimecrolimus; format: in vitro ADME
[9] = system: allergic contact dermatitis (ACD); assay: Skin inflammation and lymph nodes during sensitization and elicitation phase of ACD; format: in vivo
psoriatic patients = settings: human, in vivo
Procedure: A clinical study was initiated with an oral formulation of pimecrolimus to treat psoriatic patients. Pimecrolimus was evaluated as treatment for psoriasis using an oral dose of 60 mg (30 mg b.i.d) during a 4-week clinical study. The cohort included 10 patients; 8 received the treatment and 2 received a placebo.
The dose used in the study was 60 mg/day, given as 30 mg b.i.d. To make this dose the 20 mg tablets were cut in half using a special cutter (Tablettenteiler NR.96) so as to obtain 30 mg of pimecrolimus or a matched amount of placebo.
In this study the relationship of trough concentration to clinical results was also determined.

[10] = system: gene expression in blood cells; settings: days 13 or 14 vs baseline, 30 mg b.i.d. oral
Procedure: Pimecrolimus was evaluated as treatment for psoriasis using an oral dose of 60 mg (30 mg b.i.d) during a 4-week clinical study. The cohort included 10 patients; 8 received the treatment and 2 received a placebo. Blood samples were collected before the first administration to establish the gene expression baseline and on days 13 or 14 after treatment with pimecrolimus or placebo and submitted to gene expression analysis in order to gain insights into the mechanisms of action of the compound.
The RNA from blood samples drawn from each patient in the study was extracted and tested on individual DNA microarrays, thus allowing, for each patient, a comparison of gene expression before and after pimecrolimus treatment. […] Genes that were consistently modulated were sorted in functional categories.

[11] = in vivo, po

Compound: Infliximab: chimeric anti-TNF alpha antibody
- patients in whom remission is achieved (IBD patients; CD patients, infusion): up to 60%
- patients who develop side effects (IBD patients; e.g., nausea, upper respiratory tract infections, abdominal pain and headache): up to 60%
- patient population which develops human anti-chimeric antibodies (IBD patients; human, in vivo): 13-30%
- patients who suffered serious infusion reactions (IBD patients; human, in vivo): Sixteen percent

Compound: O=C(O)c1cc(/N=N/c2ccc(S(=O)(=O)Nc3ccccn3)cc2)ccc1O [Sulphasalazine, reference compound]
- healthy control subjects reporting side effects related to the sulphapyridine moiety (IBD patients; healthy control subjects): ≤ 80%
- patients reporting side effects related to the sulphapyridine moiety (IBD patients; patients): up to 45%

Compound: 33-epichloro-33-desoxy-ascomycin [Pimecrolimus]
- IC50 (promoter for human IL-2): 1.5 nM
- IC50 [1]: 9 nM
- time to steady-state [2]: 6 to 13 days
- dose dependence of Cmax and AUCτ ([2]; po): dose proportional
- effect of age or weight on the apparent clearance ([2]; po): no effect
- trough concentration associated with a significant clinical response in the target epithelial tissue ([2]; po): ≥ 7 ng/mL
- AUCτ,b Mean ± SD ([2]; po, 10 mg): 102.8 ± 41 .4 ng · h/mL
- Cmax,b Mean ± SD ([2]; po, 20 mg): 42 4 ± 10.8 ng/mL
- colitis, histological examination of colon sections ([3]; 30 mg/kg/day p.o.): moderate to severe inflammation
- colitis, histological examination of colon sections ([3]; 60 mg/kg/day p.o.): moderate
- inhibition of lymphocyte numbers in blood, spleen and MLN ([3]; 100 mg/kg/day): not observed
- mice with macroscopically normal feces ([3]; 100 mg/kg/day group): Approximately half of the mice
- colitis, histological examination of colon sections ([3]; 100 mg/kg/day p.o.): only mildly inflamed colons
- neutrophil infiltration into the colon (myeloperoxidase activity in colon homogenates) ([3]; 100 mg/kg/day p.o.): completely blocked
- loss of BW associated with the disease ([3]; oral, 4 weeks, dose range 30-100 mg/kg/day, dose-responsive): prevented the severe loss of BW
- diarrhea ([3]; p.o., 30-100 mg/kg/day): improved in a dose-dependent fashion
- severe colitis relative to placebo-treated SCID-IBD mice ([3]; p.o., 30-100 mg/kg/day): significantly inhibited
- blood and spleen neutrophilia associated with established/ongoing colitis [4]: strongly inhibits
- loss of BW associated with established/ongoing mild to severe colitis [4]: highly-effective in reversing the loss of BW
- efficacy compared to FK506 [5]: superior
- therapeutic window of anti-inflammatory activity in the skin versus systemic immunosuppression as compared to FK506 ([6]; rats, q.d., s.c.): clearly increased therapeutic window
- systemic immunosuppressive effects compared to CyA or FK506 ([6]; transplantation and vaccination models): only a low potential to impair systemic immune responses; also recorded: minimal general systemic immunosuppressive effects
- AUC0-24h in skin relative to FK506 (in vivo): twice as high
- exposure in all other tissues, including blood, lymph nodes and kidney (in vivo): lower than to FK506
- allergen induced airway eosinophilia and IL-4 cytokine production ([7]; mouse, single and multiple challenge models): inhibit
- eosinophil count in the lung and eosinophil peroxidase activity ([7]; sensitized mice, oral administration): able to reduce
- allergen induced airway eosinophilia and IL-4 cytokine production [8]: inhibit
- route of elimination (CYP3A enzyme subfamily): predominantly via metabolism involving an oxidative mechanism catalyzed by the CYP3A enzyme subfamily
- primary site of action [9]: primarily interferes with inflammation in the skin
- change in physical examination, blood pressure, electrocardiogram, safety laboratory tests or renal function (psoriatic patients): no clinically significant change was observed
- serious adverse side effects (psoriatic patients): no serious adverse side effects in any patient
- expression of Kallistatin [10]: up-regulated
- expression of asthma related genes (RANTES, GALECTIN-3, Thromboxane A2 receptor, Glutathione peroxidase) [10]: specifically and significantly down-regulated
- expression of genes necessary for chemotaxis and cellular migration (LFA-1, P-selectin ligand, L-selectin) [10]: dramatic down-regulation
- expression of genes of the Macrolactam target pathway (macrophilin 12), cellular activation and proliferation (Histone2, Histone 3.3, cyclin D2) [10]: down-regulate
- expression of inflammatory mediators (Leukotriene A4 hydrolase, prostaglandin endoperoxide synthase) [10]: strongly down regulate
- drug accumulation [11]: does not lead to drug accumulation in the blood or tissues

Compound: C=CC[C@@H]1/C=C(\C)C[C@H](C)C[C@H](OC)[C@H]2O[C@@](O)(C(=O)C(=O)N3CCCC[C@H]3C(=O)O[C@H](/C(C)=C/[C@@H]3CC[C@@H](O)[C@H](OC)C3)[C@H](C)[C@@H](O)CC1=O)[C@H](C)C[C@@H]2OC [FK506, tacrolimus, reference compound]
- IC50 ([1]; Mus musculus): 1 nM
- Kp at 2 h (in vivo): 2.8
- Kp at 24 h (in vivo): 6
- skin/blood concentration ratio (in vivo; 6 h): 1.6
- primary site of action [9]: acts primarily on the subcutaneous lymphoid tissue

Compound: Cn1cnc([N+](=O)[O-])c1Sc1ncnc2nc[nH]c12 [AZA, Azathioprine, reference compound]
- patients who get pancreatitis or more severe allergic reactions (IBD patients; human, in vivo): 3-15%

Compound: C[C@@H]1C[C@H]2[C@@H]3CCC4=CC(=O)C=C[C@]4(C)[C@@]3(F)[C@@H](O)C[C@]2(C)[C@@]1(O)C(=O)CO [dexamethasone, Dexamethasone, reference compound]
- BW at the doses needed to inhibit colitis ([3]; 3 and 10 mg/kg/day p.o.): steroid-related accelerated loss in BW
